From ChEMBL document CHEMBL3351995, “β-Nitro substituted carboxylic acids and their cytotoxicity” (Bioorg Med Chem Lett, 2014)
The source made the active and inactive calls. The calls are words filed in the database; no cut-off is given here.

How the values were obtained:
8505C = test: Cytotoxicity against human 8505C cells by SRB assay; format: functional, cell-based
[1] = Cytotoxicity against human 518A2 cells by SRB assay; format: functional, cell-based
[2] = Cytotoxicity against human DLD1 cells by SRB assay; format: functional, cell-based; details: DLD-1
MCF7 = test: Cytotoxicity against human MCF7 cells by SRB assay; format: functional, cell-based
A549 = test: Cytotoxicity against human A549 cells by SRB assay; format: functional, cell-based
[3] = Cytotoxicity against human Lipo cells by SRB assay; format: functional, cell-based
A2780 = test: Cytotoxicity against human A2780 cells by SRB assay; format: functional, cell-based
[4] = Cytotoxicity against human SW1736 cells by SRB assay; format: functional, cell-based; details: SW-1736
[5] = Cytotoxicity against mouse NIH/3T3 cells by SRB assay; format: cell-based; details: NIH3T3
[6] = Cytotoxicity against human A253 cells by SRB assay; format: functional, cell-based
518A2 [7] = test: Induction of apoptosis in human 518A2 cells assessed as secondary necrotic cells at 35 uM after 48 or 72 hrs by annexin V-FITC/propidium iodide staining-based flow cytometry; format: functional
518A2 [8] = test: Induction of apoptosis in human 518A2 cells assessed as necrotic cells at 35 uM after 48 or 72 hrs by annexin V-FITC/propidium iodide staining-based flow cytometry; format: functional
518A2 [9] = test: Induction of apoptosis in human 518A2 cells assessed as secondary necrotic cells at 35 uM after 24 hrs by fluorescence microscopy; format: functional, cell-based
518A2 [10] = test: Induction of apoptosis in human 518A2 cells assessed as normal cells at 35 uM after 48 or 72 hrs by annexin V-FITC/propidium iodide staining-based flow cytometry; format: functional
518A2 [11] = test: Induction of apoptosis in human 518A2 cells assessed as apoptotic ells at 35 uM after 48 or 72 hrs by annexin V-FITC/propidium iodide staining-based flow cytometry; format: functional

SMILES | IC50 (8505C) [µM] | IC50 [1] [µM] | IC50 [2] [µM] | IC50 (MCF7) [µM] | IC50 (A549) [µM] | IC50 [3] [µM] | IC50 (A2780) [µM] | IC50 [4] [µM] | IC50 [5] [µM] | IC50 [6] [µM] | Activity (518A2 [7]) [%] | Activity (518A2 [8]) [%] | Activity (518A2 [9]) | Activity (518A2 [10]) [%] | Activity (518A2 [11]) [%]
CCOC(=O)C(C[N+](=O)[O-])c1ccc(F)cc1 (stereo not given) | > 30 | > 30 | > 30 | > 30 | > 30 | > 30 | > 30 | > 30 | > 30 | > 30 |  |  |  |  | 
C=C(C#N)c1ccc(Cl)cc1 | > 30 | > 30 | > 30 | 14.2 | > 30 | > 30 | 15.4 | > 30 | 23.5 | > 30 |  |  |  |  | 
CN(C)C(=O)C(C[N+](=O)[O-])c1ccc(Cl)cc1 (stereo not given) | > 30 | > 30 | > 30 | > 30 | > 30 | > 30 | > 30 | > 30 | > 30 | > 30 |  |  |  |  | 
CCOC(=O)C(C[N+](=O)[O-])c1ccc(C)cc1 (stereo not given) | > 30 | > 30 | > 30 | > 30 | > 30 | > 30 | > 30 | > 30 | > 30 | > 30 |  |  |  |  | 
CCOC(=O)C(CN)c1ccc(Cl)cc1 (stereo not given) | > 30 | > 30 | > 30 | > 30 | > 30 | > 30 | 22.3 | > 30 | 25.7 | > 30 |  |  |  |  | 
CCOC(=O)C(C[N+](=O)[O-])c1ccc(C(F)(F)F)cc1 (stereo not given) | 13.8 | 15.2 | 11 | 6.7 | 9.9 | 15.2 | 6.6 | 6.3 | 9.7 | 9.8 |  |  |  |  | 
CCOC(=O)C(C[N+](=O)[O-])c1ccccc1 (stereo not given) | > 30 | > 30 | > 30 | > 30 | > 30 | > 30 | > 30 | > 30 | > 30 | > 30 |  |  |  |  | 
COC(=O)C(C[N+](=O)[O-])c1ccc(Cl)cc1 (stereo not given) | 11.6 | 5.8 | 5.2 | 3.4 | 10.5 | 8.7 | 2.5 | 5.8 | 2.1 | 5.4 |  |  |  |  | 
CCOC(=O)C(C)(C[N+](=O)[O-])c1ccc(Cl)cc1 (stereo not given) | > 30 | > 30 | > 30 | > 30 | > 30 | > 30 | > 30 | > 30 | > 30 | > 30 |  |  |  |  | 
NC(=O)C(C[N+](=O)[O-])c1ccc(Cl)cc1 (stereo not given) | > 30 | > 30 | > 30 | > 30 | > 30 | > 30 | > 30 | > 30 | > 30 | > 30 |  |  |  |  | 
CCOC(=O)C(C[N+](=O)[O-])c1ccccc1Cl (stereo not given) | > 30 | > 30 | > 30 | > 30 | > 30 | > 30 | 9.9 | > 30 | > 30 | > 30 |  |  |  |  | 
O=C(Cc1ccccc1)C(C[N+](=O)[O-])c1ccc(Cl)cc1 (stereo not given) | > 30 | 23.9 | 22.5 | 18.2 | > 30 | 28.9 | 12.1 | 23.9 | 9.2 | 21.4 |  |  |  |  | 
CCOC(=O)C(C[N+](=O)[O-])c1cccc(C(F)(F)F)c1 (stereo not given) | 20.7 | 8.6 | 8.2 | 7.6 | 13.6 | 10.9 | 6.3 | 4.7 | 10.2 | 7.2 |  |  |  |  | 
CCOC(=O)C(C[N+](=O)[O-])c1cccc(Cl)c1 (stereo not given) | 14.9 | 7.3 | 14.5 | 17.9 | 3.5 | 19.5 | 14.4 | 8.3 | 21.1 | 10.6 |  |  |  |  | 
CCOC(=O)C(C[N+](=O)[O-])c1ccc(OC)cc1 (stereo not given) | > 30 | > 30 | > 30 | > 30 | > 30 | > 30 | > 30 | > 30 | > 30 | > 30 |  |  |  |  | 
CCOC(=O)C(C[N+](=O)[O-])c1ccc(Cl)cc1 (stereo not given) | > 30 | 17.3 | 10.9 | 22.8 | 14.9 | 19.2 | 1.6 | > 30 | 7.7 | > 30 | 12.222 | 2.883 | Active | 22.72 | 3.224
CCOC(=O)C(C[N+](=O)[O-])c1cccc(OC(F)(F)F)c1 (stereo not given) | 22.1 | 14.5 | > 30 | > 30 | 19.9 | > 30 | 2.2 | 16.6 | > 30 | 11.8 |  |  |  |  | 
